Experimental data as given in patent US4587233A, “Use of Arg-Phe-amide derivatives” (Board of Trustees of the Leland Stanford Junior University, priority 1983, dated 1986).
Where a name gives a salt, the structure may show the parent alone.

Columns and labels:
[1] = test system: Blood Pressure of Anesthetized Rats; assay: Blood pressure bioassay in urethane-anesthetized rats, peptides injected intravenously; type: in vivo, male Sprague-Dawley rats; set-up: key to Duration of blood pressure effect: +: short-lasting blood pressure elevation at all doses; ++: short-lasting blood pressure elevation at low doses; +++: long-lasting elevation at low doses; details: i.v.; for Maximal increase in blood pressure mm Hg diastolic / Maximal increase in blood pressure mm Hg systolic: over the dose-range tested (nmol/kg)
Protocol: Bioassays were conducted on male Sprague-Dawley rats, weighing 250-450 g, and anesthetized by an intraperitoneal injection of a 25 percent urethane solution (1.25 g/kg). The left femoral artery was cannulated with PE 50 polyethylene tubing for monitoring of blood pressure with a pressure transducer RP-1500 (Narco Biosystems). Injections of peptides or drugs were made via a PE 10 tubing into the left femoral vein. Respiration was measured by an impedance method by which the respiratory movements of the chest are registered. The method gives indirect information on respiration amplitude. Heart and respiration frequency were obtained by using biotachometer couplers which measure mean frequencies. Body temperature was measured in the rectum with a thermistor (Yellow Springs Instruments) and maintained between 36.5° and 37.5° C. Peptides or drugs were dissolved in sterile H2 O and the volumes injected intravenously were usually 0.1 ml and never exceeded 0.2 ml.

[2] = test system: pressor activity of FMRF-NH2 in urethane-anesthetized rats; assay: Pressor activity of FMRF-NH2 after pretreatment with vasodepressor drugs and pharmacologic antagonists; type: in vivo; details: for Attenuation of the FMRFamide pressor effect: FMRF-NH2 challenge 16, 128, 512 nmol/kg i.v. after pretreatment with drugs interacting with the α-adrenergic system; for Effect of lower doses of drug on FMRFamide pressor effect: effective at blocking norepinephrine hydrochloride 3 to 15 μg/kg; for Effect of drug pretreatment on pressor activity of FMRF-NH2: FMRF-NH2 challenge 16, 128, 512 nmol/kg i.v. 5-10 minutes after drug pretreatment
[3] = test system: pressor effects of angiotensin II, Arg^8 -vasopressin, norepinephrine hydrochloride; assay: Effectiveness of the antagonists against their respective pressor agonists; type: in vivo, rats; details: for Blocking of the pressor effects of norepinephrine hydrochloride: lower doses of drug, norepinephrine hydrochloride 3 to 15 μg/kg

Molecule: NC(=O)[C@@H](N)Cc1ccccc1 [F--NH2, phenylalanine-amide]
- Pressor activity (blood pressure elevation), in words [1]: Neither arginine nor phenylalanine nor phenylalanine-amide were active
- Maximal increase in blood pressure mm Hg diastolic [1]: 0 mm Hg
- Maximal increase in blood pressure mm Hg systolic [1]: 0 mm Hg

Molecule: Cc1ccc(N(CC2=NCCN2)c2cccc(O)c2)cc1 [phentolamine hydrochloride]
- Attenuation of the FMRFamide pressor effect [2]: 30-75%
- Effect of lower doses of drug on FMRFamide pressor effect [2]: did not affect
- Blocking of the pressor effects of norepinephrine hydrochloride [3]: effective at blocking

Molecule: gamma 1-melanotropic stimulating hormone [q MSH]
- Duration of blood pressure effect [1]: +++
- Pressor activity (blood pressure elevation), in words [1]: exhibits pressor activity
- Maximal increase in blood pressure mm Hg diastolic [1]: 70 mm Hg
- Maximal increase in blood pressure mm Hg systolic [1]: 90 mm Hg

Molecule: C=CCN1CC[C@]23c4c5ccc(O)c4O[C@H]2C(=O)CC[C@@]3(O)[C@H]1C5.Cl [nalozone hydrochloride]
- Effect of drug pretreatment on pressor activity of FMRF-NH2 [2]: did not modify

Molecule: nitroprusside
- Effect of drug pretreatment on pressor activity of FMRF-NH2 [2]: did not modify

Molecule: CC(COc1ccccc1)N(CCCl)Cc1ccccc1 (stereo not drawn) [Phenoxybenzamine hydrochloride]
- Effect of drug pretreatment on pressor activity of FMRF-NH2 [2]: no effect

Molecule: CN1C[C@H](C(=O)N[C@]2(C)O[C@@]3(O)[C@@H]4CCCN4C(=O)[C@H](Cc4ccccc4)N3C2=O)C[C@@H]2c3cccc4[nH]cc(c34)C[C@H]21 [dihydroergotamine mesylate]
- Attenuation of the FMRFamide pressor effect [2]: 30-75%

Molecule: N[C@@H](Cc1ccccc1)C(=O)O [F-- OH, phenylalanine]
- Pressor activity (blood pressure elevation), in words [1]: Neither arginine nor phenylalanine nor phenylalanine-amide were active
- Maximal increase in blood pressure mm Hg diastolic [1]: 0 mm Hg
- Maximal increase in blood pressure mm Hg systolic [1]: 0 mm Hg

Molecule: CN1[C@@H]2CC[C@H]1C[C@@H](OC(=O)C(CO)c1ccccc1)C2 (stereo partly drawn) [atropine]
- Effect of drug pretreatment on pressor activity of FMRF-NH2 [2]: did not modify

Molecule: COC(=O)[C@H]1[C@H]2C[C@@H]3c4[nH]c5cc(OC)ccc5c4CCN3C[C@H]2C[C@@H](OC(=O)c2cc(OC)c(OC)c(OC)c2)[C@@H]1OC [reserpine]
- Effect of drug pretreatment on pressor activity of FMRF-NH2 [2]: did not modify

Molecule: CCCO [propanol hydrochloride]
- Effect of drug pretreatment on pressor activity of FMRF-NH2 [2]: not blocked

Molecule: (1-(β-mercapto-β,β-cyclopentamethylene propionic acid), 2-(0-methyl)tyrosine)Arg^8 -Vasopressin
- Effect of drug pretreatment on pressor activity of FMRF-NH2 [2]: not blocked
- Antagonism of Arg^8 -vasopressin ([3]; agonist Arg^8 -vasopressin 1 μg/kg): effective antagonists

Molecule: c1ccc(CC2=NCCN2)cc1 [tolazoline hydrochloride]
- Attenuation of the FMRFamide pressor effect [2]: 30-75%
- Effect of lower doses of drug on FMRFamide pressor effect [2]: did not affect
- Blocking of the pressor effects of norepinephrine hydrochloride [3]: effective at blocking

Molecule: CNCC(=O)N[C@@H](CCCN=C(N)N)C(=O)N[C@H](C(=O)N[C@@H](Cc1ccc(O)cc1)C(=O)N[C@H](C(=O)N[C@@H](Cc1cnc[nH]1)C(=O)N1CCC[C@H]1C(=O)N[C@@H](C)C(=O)O)C(C)C)C(C)C [saralasin]
- Effect of drug pretreatment on pressor activity of FMRF-NH2 [2]: not blocked
- Antagonism of angiotensin II ([3]; agonist angiotensin II 2 μg/kg): effective antagonists

Molecule: Clc1cccc(Cl)c1N=C1NCCN1 [clonidine hydrochloride]
- Attenuation of the FMRFamide pressor effect [2]: 30-75%

Molecule: CN1CCC(=C2c3ccccc3C=Cc3ccccc32)CC1 [cyproheptadine]
- Effect of drug pretreatment on pressor activity of FMRF-NH2 [2]: did not modify

Molecule: C[N+](C)(C)CCCCCC[N+](C)(C)C [hexamethonium bromide]
- Effect of drug pretreatment on pressor activity of FMRF-NH2 [2]: not blocked

Molecule: N=C(N)NCCC[C@H](N)C(=O)O [R--OH, arginine]
- Pressor activity (blood pressure elevation), in words [1]: Neither arginine nor phenylalanine nor phenylalanine-amide were active
- Maximal increase in blood pressure mm Hg diastolic [1]: 0 mm Hg
- Maximal increase in blood pressure mm Hg systolic [1]: 0 mm Hg
